Series [1] can be described thus: Stability test of amorphous and crystalline form under severe condition (60° C.). Conditions: after 28 days. The series is classed as physicochemical. An excerpt:
Therefore, it should be understood that the crystalline form has better stability than the amorphous form enough to be used for the composition of inhibitor or therapeutic agent.

The subject of series [2] is LPS-Induced Acute Hepatitis in Mice. The series can be described thus: Treatment effect on LPS-induced acute hepatitis in mice (blood plasma ALT activity). Particulars: Mus musculus, LPS/D-Gln model, plasma ALT 8 hours after drug injection. The series is classed as in vivo, Male Balb/c mice.
Series [3] relates to Fas Antibody-Induced Acute Hepatitis in Mice. The experiment in a line: Treatment effect on Fas antibody-induced acute hepatitis in mice (blood plasma ALT activity). In kind it is in vivo, Male Balb/c mice. Conditions: Mus musculus, Fas antibody model, plasma ALT 8 hours after drug injection.

These results are taken from US8044080B2, “Isoxazoline derivative and novel process for its preparation” (LG Life Sciences Ltd., priority 2005, dated 2011).

Regarding `CC(C)[C@@]1(C(=O)N[C@H]2CC(=O)O[C@]2(O)CF)CC(c2nccc3ccccc23)=NO1` [(4S,5S)-5-fluoromethyl-5-hydroxy-4-({[(5R)-5-isopropyl-3-(1-isoquinolinyl)-4,5-dihydro-5-isoxazolyl]carbonyl}amino)-2-dihydrofuranone], in series [1], the “amount destroyed in stability test” value was 50% and the “quantitative amount in stability test” value was “not decreased at all”.
In the case of `CC(C)[C@@]1(C(=O)N[C@H]2CC(=O)O[C@]2(O)CF)CC(c2nccc3ccccc23)=NO1` [compound of formula (1), (4S,5S)-5-fluoromethyl-5-hydroxy-4-({[(5R)-5-isopropyl-3-(1-isoquinolinyl)-4,5-dihydro-5-isoxazolyl]carbonyl}amino)-2-dihydrofuranone], the ED50 (usually the dose that gives a 50% effect, or the effect in half of the subjects) in series [2] (intravenous administration) was 0.015 mg/kg; in series [2] (oral administration), 0.02 mg/kg; in series [3] (intravenous administration), 0.003 mg/kg; in series [3] (oral administration) it was 0.018 mg/kg.
